Two compounds from patent publication US20060147564A1, “Composition for preventing or treating allergic disease using black rice extract and its therapeutic use” (CELLMICS CO. LTD, priority 2003, published 2006) can be followed below.

Test [1] relates to mice with asthma induced by ovalbumin. Briefly: Inflammation in lung of mice with asthma induced by ovalbumin (microphotographs, Examples 2 and 4). To be noted: intraperitoneal injection twice. It is filed as in vivo, mice (C57BL/6). On the procedure:
At first, in order to prepare animal models of asthma, 200 μl of ovalbumin solution (ovalbumin 200 μg and alumina gel 1000 μg were dissolved in physiological saline) was injected in each abdominal cavity of twenty 10-week old female mice (C57BL/6, Damul Science, Daejeon, Korea). Two weeks later, 200 μl of ovalbumin solution(2% w/v) was sprayed on each mouse to sensitize it. 200 μl of 1% ovalbumin solution was sprayed again on the 21st, the 22nd and the 23rd day, and 10% ovalbumin solution was sprayed again on the 25th day to sensitize.
The above mice with asthma induced by sensitizing with 10% ovalbumin were divided into two groups; one was used as a negative control group treated with nothing and the other was treated with 10 mg/kg of black rice extract. Black rice extract was administered by intraperitoneal injection and the injection was performed twice on the 24th and the 25th day from the treatment of ovalbumin.
48 hours after the treatment of black rice extract, mice were sacrificed using ether. Inflammation in lung of each mouse was investigated. […] Therefore, it was confirmed that black rice extract could inhibit asthma effectively. […]

For test [2] the test system is unchanged. Kind of test: Accumulation of eosinophiles in airway (BALF cell count) of mice with asthma induced by ovalbumin (Example 3). It is filed as in vivo, mice (C57BL/6). To be noted: FIG. 2; for percentage of eosinophiles in airway: intraperitoneal injection twice, ovalbumin-exposed mice 58%. Here is the method: At first, in order to prepare animal models of asthma, 200 μl of ovalbumin solution (ovalbumin 200 μg and alumina gel 1000 μg were dissolved in physiological saline) was injected in each abdominal cavity of twenty 10-week old female mice (C57BL/6, Damul Science, Daejeon, Korea). Two weeks later, 200 μl of ovalbumin solution(2% w/v) was sprayed on each mouse to sensitize it. 200 μl of 1% ovalbumin solution was sprayed again on the 21st, the 22nd and the 23rd day, and 10% ovalbumin solution was sprayed again on the 25th day to sensitize. […] Each compound was administered by intraperitoneal injection and the injection was performed twice on the 24th and the 25th day from the treatment of ovalbumin. On the second day from the treatment, each mouse was sacrificed using ether. Then, a microtube was connected to trachea. PBS (phosphate-buffered saline, 0.8 ml) was injected and recovered through the microtube, which was repeated twice, resulting in the obtainment of bronchoalveolar lavage fluid (BALF). The fluid was centrifuged to separate cells in airway lumen and various proteins secreted from the cells and lung. The separated cells were fixed on a slide using cytospin and stained with Diff-Quick staining solution. Photographs were taken by a digital camera attached on Carzeiss microscope (model: […]). 5 random regions per each sample were picked to count eosinophiles, and the percentage of eosinophiles in each sample was shown in FIG. 2.

The test system is the same in test [3]. Kind of test: Accumulation of eosinophiles in airway (BALF cell count) of mice with asthma induced by ovalbumin (Example 5). The format is in vivo, mice (Balb/c). To be noted: 2nd to 23rd day, negative control 62.7 ± 4.3, n=5. Here is the method:
(§1) In order to prepare animal models with asthma, 0.5 ml of ovalbumin solution (500 μg of ovalbumin and 10 mg of alumina gel were dissolved in 1 ml of PBS) was injected into abdominal cavities of twenty 5-week old female mice(Balb/c, Orient, Seoul) on first and 10th experiment day. The ovalbumin solution was sprayed on each mouse on the 21st, the 22nd and the 23rd day to induce asthma.
(§2) Mice (n=15) with asthma induced by ovalbumin were divided into three groups; one was used as a negative control treated with nothing and two other groups were used as experimental groups each treated with cyanidin glycoside by 1.5 mg/kg and 4.5 mg/kg, respectively. Cyanidin glycoside was orally administered once a day in succession from the 2nd day to the 23rd day.
24 hours after final sensitization, each mouse was sacrificed using ether and a microtube was connected into trachea. 0.8 ml of PBS was injected and recovered through the microtube, which was repeated twice. The obtained bronchoalveolar lavage fluid (BALF) was centrifuged to separate cells in airway lumen and various proteins secreted from the cells and lung.
The separated cells were fixed on a slide using cytospin and stained with Diff-Quick staining solution. Photographs were taken by a digital camera attached on Carzeiss microscope (model: AXIOVERT 25-CEL). 5 random regions per each sample were picked to count eosinophiles, and the percentage of eosinophiles in each sample was represented in Table 1.

Test [4] has the same test system. Briefly: Inflammation in lung of mice with asthma induced by ovalbumin (microphotographs, Example 5). It is filed as in vivo, mice (Balb/c). Conditions: 1.5 mg/kg and 4.5 mg/kg orally once a day; FIG. 4C and 4D. On the procedure: as §1, §2
Precisely, as cyanidin glycoside concentration increased, the percentage of eosinophiles in airway decreased to 49% and 38% each; compared with a negative control. […] Inflammation in lung cells of the sacrificed mice was also investigated and the result was represented in FIG. 4.

For the compound `Oc1ccc(-c2[o+]c3cc(O)cc(O)c3cc2O)cc1.[Cl-]` [pelargonidin, 3,5,7-trihydroxy-2-(4-hydroxyphenyl)-1-benzopyrylium chloride], in test [1] (0.5 mg/kg, data not shown), the inflammation-inhibiting effect result is given as “outstanding”. In addition, the inflammation in bronchi entry in test [1] (1.25 mg/kg, 48 hours after treatment, FIG. 3) is “remarkably reduced”. For the same compound, the “accumulation of eosinophiles in airway” value in test [2] (0.5 mg/kg and 1.25 mg/kg, intraperitoneal injection) is recorded as “inhibited”. For the same compound, the results for the “percentage of eosinophiles in airway” value in test [2] (0.5 mg/kg) and in test [2] (1.25 mg/kg) were 30% and 20%, respectively.
In the case of `OC[C@H]1O[C@@H](Oc2cc3c(O)cc(O)cc3[o+]c2-c2ccc(O)c(O)c2)[C@H](O)[C@@H](O)[C@@H]1O` [Cyanidin glycoside, cyanidin 3-O-β-glucopyranoside], the Percentage of eosinophiles in test [3] (1.5 mg/kg orally once a day) amounted to 49.5 ± 5.8 %; in test [3] (1.5 mg/kg orally once a day, listed as cyanidin glycoside) it was 49%; in test [3] (4.5 mg/kg orally once a day), 38.2 ± 6.2 %; in test [3] (4.5 mg/kg orally once a day, listed as cyanidin glycoside), 38%. Besides, the inflammation in bronchi entry in test [4] is “remarkably reduced”.
